Source: patent US20240182503A1, “MACROCYCLE COMPLEMENT FACTOR B INHIBITORS” (priority 2021, published 2024)

Target: CVF-Bb complex (Homo sapiens (Human), UniProt P00751)
Experiment: biochemical
Assay type: biochemical
Conditions: not given
Protocol: CVF-Bb complex, prepared from purified cobra venom factor, (3 nM) is incubated with a compound of the disclosure at various concentrations for 10 minutes at room temperature in PBS (pH 7.4) containing 10 mM MgCl2 and 0.05% (w/v) CHAPS. Human Complement C3 substrate is added to a final concentration of 1 μM. After 1 hour incubation at room temperature, the enzyme reaction is stopped by addition of a cocktail of concentrated pan-protease inhibitors. The product of the reaction, C3a, is quantified by means of an enzyme-linked-immunosorbent assay and/or denaturing gel electrophoresis (SDS-PAGE). IC50 values are calculated from percentage of inhibition of CVF-Bb activity as a function of test compound concentration.

With `CCO[C@H]1CCN2Cc3c(cc(C)c4[nH]ccc34)OCCCCCCCCCCOc3cc(C(=O)O)ccc3[C@@H]2C1` [Ex. 32, (21bS,23S)-23-ethoxy-4-methyl-7,8,9,10,11,12,13,14,15,16,21b,22,23,24,25,2 7-hexadecahydro-3H-benzo[7,8]pyrido[1′,2′:5,6][1,9,5]dioxaazacyclo-nonadecino[3,2-e]indole-19-carboxylic acid] as the molecule, how does the IC50 read?
The IC50 was > 10000 nM.

With `Cc1cc2c(c3cc[nH]c13)CN1CC[C@@H](C[C@H]1c1ccc(C(=O)O)cc1)OCCCCCCCCCO2` (racemic) [Ex. 34, rac-4-((3^2R,3^4R)-1^7-methyl-11H-4,14-dioxa-1(4,5)-indola-3(1,4)-piperidinacyclotetradecaphane-3^2-yl)benzoic acid] as the molecule, how does the IC50 read?
The IC50 was > 10000 nM.

For `CCO[C@H]1CCN(Cc2c(OC)cc(C)c3[nH]ccc23)[C@H](c2ccc(C(=O)O)cc2OCCNC(C)=O)C1` [Ex. 6, 3-(2-acetamidoethoxy)-4-((2S,4S)-4-ethoxy-1-((5-methoxy-7-methyl-1H-indol-4-yl)methyl)piperidin-2-yl)benzoic acid], which IC50 is on record?
Its IC50 is 313 nM.

Which IC50 does the source give for `COc1cc(C)c2[nH]ccc2c1CN1CC[C@H]2C[C@H]1c1ccc(C(=O)NS(=O)(=O)C(C)C)cc1OCCCCCCO2` [Ex. 47, (1^2S,1^4S)-N-(isopropylsulfonyl)-11-((5-methoxy-7-methyl-1H-indol-4-yl)methyl)-3,10-dioxa-1(2,4)-piperidina-2(1,2)-benzenacyclodecaphane-2^4-carboxamide] here?
Its IC50 is 649 nM.

Which IC50 does the source give for `COc1cc(C)c2[nH]ccc2c1CN1CC[C@@H]2C[C@@H]1c1ccc(C(=O)O)cc1OCC/C=C\CO2` [Ex. 42, (1^2R,1^4R,Z)-1^1-((5-methoxy-7-methyl-1H-indol-4-yl)methyl)-3,9-dioxa-1(2,4)-piperidina-2(1,2)-benzenacyclononaphan-6-ene-2^4-carboxylic acid] here?
The IC50 was 1060 nM.

How did the IC50 turn out when `CCO[C@@H]1CCN(Cc2c(OC)cc(C)c3[nH]ccc23)[C@H](c2ccc(C(=O)O)cc2OC)C1` [Ex. 4, 4-((2S,4R)-4-ethoxy-1-((5-methoxy-7-methyl-1H-indol-4-yl)methyl)piperidin-2-yl)-3-methoxybenzoic acid] was run?
Its IC50 is 3550 nM.

Which IC50 does the source give for `COc1cc(C)c2[nH]ccc2c1CN1CC[C@H]2CC1c1ccc(C(=O)O)cc1CCCCCCCO2` [Ex. 39, (1^2S,1^4RS)-1^1-((5-methoxy-7-methyl-1H-indol-4-yl)methyl)-10-oxa-1(2,4)-piperidina-2(1,2)-benzenacyclodecaphane-2^4-carboxylic acid] here?
The IC50 was 251 nM.

Which IC50 does the source give for `COc1cc(C)c2[nH]ccc2c1CN1CC[C@H](OCCNC(C)=O)C[C@H]1c1ccc(C(=O)O)cc1` [Compar. Ex. 1, 4-((2S,4S)-4-(2-acetamidoethoxy)-1-((5-methoxy-7-methyl-1H-indol-4-yl)methyl)piperidin-2-yl)benzoic acid, reference compound] here?
The IC50 was 135 nM.

Same assay, conditions: read-out: IC50

How did the IC50 turn out when “(1^2S,1^4S,E)-1^1-((5-methoxy-7-methyl-1H-indol-4-yl)methyl)-3,10-dioxa-1(2,4)-piperidina-2(1,7)-naphthalenacyclodecaphan-7-ene-2^4-carboxylic acid [Ex. 53]” was run?
Its IC50 is > 10000 nM.

`COc1cc(C)c2[nH]ccc2c1CN1CC[C@H]2C[C@H]1c1ccc(C(=O)O)cc1/C=C/CCCCCCCO2` [Ex. 73, (1^2S,1^4S,Z)-1^1-((5-methoxy-7-methyl-1H-indol-4-yl)methyl)-12-oxa-1(2,4)-piperidina-2(1,2)-benzenacyclododecaphan-3-ene-2^4-carboxylic acid] was tested. Which IC50 did it give?
Its IC50 is 271 nM.

How did the IC50 turn out when `COc1cc(C)c2[nH]ccc2c1CN1CC[C@H]2C[C@H]1c1ccc(C(=O)O)cc1OCC/C=C\CO2` [Ex. 9, (1^2S,1^4S,Z)-1^1-((5-methoxy-7-methyl-1H-indol-4-yl)methyl)-3,9-dioxa-1(2,4)-piperidina-2(1,2)-benzenacyclononaphan-6-ene-2^4-carboxylic acid] was run?
Its IC50 is 342 nM.

`COc1cc(C)c2[nH]ccc2c1CN1CC[C@H]2C[C@H]1c1ccc(C(=O)NS(C)(=O)=O)cc1/C=C\CCCCCO2` [Ex. 68, (1^2S,1^4S,Z)-1^1-((5-methoxy-7-methyl-1H-indol-4-yl)methyl) —N-(methylsulfonyl)-10-oxa-1(2,4)-piperidina-2(1,2)-benzenacyclodecaphan-3-ene-24-carboxamide] was tested. Which IC50 did it give?
Its IC50 is 674 nM.

For `COc1cc(C)c2[nH]ccc2c1CN1CC[C@H]2C[C@H]1c1ccc(C(=O)O)c3ccc(cc13)OC/C=C\CO2` [Ex. 75, (1^2S,1^4S,Z)-1′-((5-methoxy-7-methyl-1H-indol-4-yl)methyl)-3,8-dioxa-1(2,4)-piperidina-2(1,7)-naphthalenacyclooctaphan-5-ene-2^4-carboxylic acid], which IC50 is on record?
Its IC50 is 352 nM.

`COc1cc(C)c2[nH]ccc2c1CN1CC[C@H]2C[C@H]1c1ccc(C(=O)O)c3ccc(cc13)OCC/C=C/CO2` [Ex. 76, (1^2S,1^4S)-1^1-((5-methoxy-7-methyl-1H-indol-4-yl)methyl)-3,9-dioxa-1(2,4)-piperidina-2(1,7)-naphthalenacyclononaphane-2^4-carboxylic acid] was tested. Which IC50 did it give?
Its IC50 is 251 nM.

With `COc1cc(C)c2[nH]ccc2c1CN1CC[C@H]2C[C@H]1c1ccc(C(=O)NS(C)(=O)=O)c3ccc(cc13)OCCCCCCO2` [Ex. 56, (1^2S,1^4S)-1^1-((5-methoxy-7-methyl-1H-indol-4-yl)methyl)-N-(methylsulfonyl)-3,10-dioxa-1(2,4)-piperidina-2(1,7)-naphthalenacyclodecaphane-2^4-carboxamide] as the molecule, how does the IC50 read?
Its IC50 is 375 nM.

Which IC50 does the source give for `COc1cc(C)c2[nH]ccc2c1CN1CC[C@H]2C[C@H]1c1ccc(C(=O)O)cc1/C=C/CCCCCCCO2` [Ex. 64, (1^2S,1^4S,E)-1^1-((5-methoxy-7-methyl-1H-indol-4-yl)methyl)-12-oxa-1(2,4)-piperidina-2(1,2)-benzenacyclododecaphan-3-ene-2^4-carboxylic acid] here?
The IC50 was 127 nM.

Which IC50 does the source give for `COc1cc(C)c2[nH]ccc2c1CN1CC[C@H]2C[C@H]1c1ccc(C(=O)NS(=O)(=O)c3ccccc3)cc1OCCCCCO2` [Ex. 70, (1^2S,1^4S)-1^1-((5-methoxy-7-methyl-1H-indol-4-yl)methyl)-N-(phenylsulfonyl)-3,9-dioxa-1(2,4)-piperidina-2(1,2)-benzenacyclononaphane-2^4-carboxamide] here?
Its IC50 is 543 nM.

Which IC50 does the source give for `CCS(=O)(=O)NC(=O)c1ccc2c(c1)OCCCCCO[C@H]1CCN(Cc3c(OC)cc(C)c4[nH]ccc34)[C@H]2C1` [Ex. 59, (1^2S,1^4S)—N-(ethylsulfonyl)-1^1-((5-methoxy-7-methyl-1H-indol-4-yl)methyl)-3,9-dioxa-1(2,4)-piperidina-2(1,2)-benzenacyclononaphane-2^4-carboxamide] here?
The IC50 was 244 nM.

`COc1cc(C)c2[nH]ccc2c1CN1CC[C@H]2C[C@H]1c1ccc(C(=O)O)cc1OCCCCCCCO2` [Ex. 7, (1^2S,1^4S)_1^1-((5-methoxy-7-methyl-1H-indol-4-yl)methyl)-3,11-dioxa-1(2,4)-piperidina-2(1,2)-benzenacycloundecaphane-2^4-carboxylic acid] was tested. Which IC50 did it give?
The IC50 was 384 nM.

With `COc1cc(C)c2[nH]ccc2c1CN1CC[C@H]2C[C@H]1c1ccc(C(=O)O)c3ccc(cc13)OCCCCCCO2` [Ex. 49, (1^2S,14S)-1^1-((5-methoxy-7-methyl-1H-indol-4-yl)methyl)-3,10-dioxa-1(2,4)-piperidina-2(1,7)-naphthalenacyclodecaphane-2^4-carboxylic acid] as the molecule, how does the IC50 read?
Its IC50 is 208 nM.

Which IC50 does the source give for “(1^2S,1^4S)-N-(ethylsulfonyl)-1^1-((5-methoxy-7- methyl-1H-indol-4-yl)methyl)-3,10-dioxa- 1(2,4)-piperidina-2(1,2)- benzenacyclodecaphane-2^4-carboxamide [Ex. 45]” here?
The IC50 was 396 nM.

For `COc1cc(C)c2[nH]ccc2c1CN1CC[C@H]2C[C@H]1c1ccc(C(=O)O)cc1OCCCC/C=C\CO2` [Ex. 10, (1^2S,1^4S,Z)-1^1-((5-methoxy-7-methyl-1H-indol-4-yl)methyl)-3,11-dioxa-1(2,4)-piperidina-2(1,2)-benzenacycloundecaphan-8-ene-2^4-carboxylic acid], which IC50 is on record?
The IC50 was 384 nM.

For `COc1cc(C)c2[nH]ccc2c1CN1CC[C@H]2C[C@H]1c1ccc(C(=O)O)cc1OCCC/C=C\CO2` [Ex. 11, (1^2S,1^4S,Z)-1′-((5-methoxy-7-methyl-1H-indol-4-yl)methyl)-3,10-dioxa-1(2,4)-piperidina-2(1,2)-benzenacyclodecaphan-7-ene-2^4-carboxylic acid], which IC50 is on record?
Its IC50 is 1200 nM.

Which IC50 does the source give for `COc1cc(C)c2[nH]ccc2c1CN1CC[C@H]2C[C@H]1c1ccc(C(=O)NS(=O)(=O)C3CCCC3)cc1OCCCCCO2` [Ex. 61, (1^2S,1^4S)—N-(cyclopentylsulfonyl)-1^1-((5-methoxy-7-methyl-1H-indol-4-yl)methyl)-3,9-dioxa-1(2,4)-piperidina-2(1,2)-benzenacyclononaphane-2^4-carboxamide] here?
Its IC50 is 331 nM.

`COc1cc(C)c2[nH]ccc2c1CN1CC[C@H]2C[C@H]1c1ccc(C(=O)NS(=O)(=O)C(C)C)cc1OCCCCCO2` [Ex. 66, (1^2S,1^4S)—N-(isopropylsulfonyl)-1^1-((5-methoxy-7-methyl-1H-indol-4-yl)methyl)-3,9-dioxa-1(2,4)-piperidina-2(1,2)-benzenacyclononaphane-2^4-carboxamide] was tested. Which IC50 did it give?
Its IC50 is 411 nM.

For `COc1cc(C)c2[nH]ccc2c1CN1CC[C@H]2C[C@H]1c1ccc(C(=O)NS(=O)(=O)C3CCCC3)cc1OCCCCCCO2` [Ex. 62, (1^2S,1^4S)—N-(cyclopentylsulfonyl)-1^1-((5-methoxy-7-methyl-1H-indol-4-yl)methyl)-3,10-dioxa-1(2,4)-piperidina-2(1,2)-benzenacyclodecaphane-2^4-carboxamide], which IC50 is on record?
The IC50 was 293 nM.

How did the IC50 turn out when `COc1cc(C)c2[nH]ccc2c1CN1CC[C@H]2C[C@H]1c1ccc(C(=O)O)cc1OCCn1cc(nn1)CO2` [Ex. 12, (2^2S,2^4S,Z)-2^1-((5-methoxy-7-methyl-1H-indol-4-yl)methyl)-5′H-3,8-dioxa-2(2,4)-piperidina-5(4,1)-triazola-1(1,2)-benzenacyclooctaphane-1^4-carboxylic acid] was run?
The IC50 was 280 nM.
